The record followed here is ChEMBL document CHEMBL1151424, “In vitro efficacy of new antifolates against trimethoprim-resistant Bacillus anthracis” (Antimicrob Agents Chemother, 2007).

Converted amounts (≈) assume the structure as drawn.

The subject of test [1] is Bacillus anthracis. As to the kind of experiment: Inhibition of histidine-tagged Bacillus anthracis Sterne recombinant DHFR expressed in Escherichia coli BL21 Star (DE3)pLysS up to 3 mins. To be noted: BL21, 0.05 h.
In test [2] the test system is Bacillus anthracis. As to the kind of experiment: Antibacterial activity against Bacillus anthracis Sterne after 16 hrs by modified alamar blue microdilution broth assay. It is filed as functional. A general note: Resazurin is reduced to fluorescent resorufin, in cell work by metabolically active cells.
Test [3] has as its target T1, Dihydrofolate reductase (Homo sapiens, UniProt P00374).
T1 sequence (P00374 whole entry): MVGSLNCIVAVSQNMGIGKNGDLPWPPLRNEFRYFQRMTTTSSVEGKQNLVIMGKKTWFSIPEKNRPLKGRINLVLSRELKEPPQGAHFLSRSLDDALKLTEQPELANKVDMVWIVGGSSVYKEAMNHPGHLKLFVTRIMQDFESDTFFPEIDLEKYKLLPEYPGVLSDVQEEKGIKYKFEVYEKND
As to the kind of experiment: Inhibition of human recombinant DHFR.

For test [4], the system named is Bacillus anthracis. As to the kind of experiment: Antibacterial activity against Bacillus anthracis Ames (NR-411) after 16 hrs by modified alamar blue microdilution broth assay. In kind it is functional. The following applies: Ames NR-411, 16 h.
Test [5] can be described thus: Selectivity ratio of IC50 for human recombinant DHFR to IC50 for histidine-tagged Bacillus anthracis Sterne recombinant DHFR.
Test [6] relates to Bacillus cereus. As to the kind of experiment: Antibacterial activity against Bacillus cereus up to 10 hrs by growth inhibition assay. It is filed as functional.
Test [7] is described as follows: Inhibition of Bacillus cereus recombinant DHFR expressed in Escherichia coli BL21(DE3) assessed as enzyme-dependent NADPH consumption.
Test [8] addresses T2, Dihydrofolate reductase (Rattus norvegicus, UniProt Q920D2).
T2 sequence (Q920D2 whole entry): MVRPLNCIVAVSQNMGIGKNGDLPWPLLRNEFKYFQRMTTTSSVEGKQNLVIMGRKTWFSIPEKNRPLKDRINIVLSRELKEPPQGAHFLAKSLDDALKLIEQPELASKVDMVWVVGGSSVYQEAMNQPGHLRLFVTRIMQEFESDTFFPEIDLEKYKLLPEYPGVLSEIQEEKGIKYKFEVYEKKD
As to the kind of experiment: Inhibition of rat DHFR.

For `COc1ncc(C2c3ccccc3C=NN2C(=O)/C=C/c2cc(Cc3cnc(N)nc3N)cc(OC)c2OC)c(OC)n1` (configuration not stated), the half-maximal inhibitory concentration (IC50) in test [1] was 0.6 µM; in test [3], more than 22 µM. For the same molecule, the MIC in test [2] is not above 128 mg/L.

With `CCC1c2ccccc2C=NN1C(=O)/C=C/c1cc(Cc2cnc(N)nc2N)cc(OC)c1OC` (configuration not stated), the IC50 in test [1] was 0.096 µM; in test [3] it was more than 27 µM; in test [7] it was 0.27 µM; in test [8], 25 µM. The MIC in test [4] was not above 25.6 mg/L; in test [2], not above 32 mg/L. The Ratio IC50 in test [5] was more than 281. The MIC50 in test [6] came to 2.6 mg/L (≈ 5.5 µM).

Consider `COc1cc(Cc2cnc(N)nc2N)cc(/C=C/C(=O)N2N=Cc3ccccc3C2c2ccc(O)cc2)c1OC` (configuration not stated), for which the MIC in test [2] was more than 128 mg/L.

In the case of `CCCC1c2ccccc2C=NN1C(=O)/C=C/c1cc(Cc2cnc(N)nc2N)cc(O)c1OC` (configuration not stated), the IC50 in test [1] was found to be 0.054 µM; in test [3], 110 µM; in test [7], 0.27 µM; in test [8], 25 µM. The MIC is not above 16 mg/L in test [4] and not above 12.8 mg/L in test [2]. In addition, in test [5], the Ratio IC50 is 2040. This molecule had an MIC50 in test [6] of 2.6 mg/L (≈ 5.5 µM).

Regarding `COc1cc(Cc2cnc(N)nc2N)cc(/C=C/C(=O)N2N=Cc3ccccc3C2C2CCCC2)c1OC` (configuration not stated), the IC50 in test [1] was 0.2 µM; in test [3], more than 22 µM; in test [7] it was 0.27 µM; in test [8], 25 µM. Besides, the MIC was not above 12.8 mg/L in test [4] and not above 25.6 mg/L in test [2]. Moreover, the Ratio IC50 in test [5] was more than 110. Besides, the MIC50 in test [6] turned out to be 2.6 mg/L (≈ 5.07 µM).

As to `CCCCC1c2ccccc2C=NN1C(=O)/C=C/c1cc(Cc2cnc(N)nc2N)cc(OC)c1OC` (configuration not stated), the IC50 is 0.17 µM in test [1], more than 20 µM in test [3], 0.27 µM in test [7] and 25 µM in test [8]. Moreover, the MIC in test [4] and in test [2] was not above 12.8 mg/L throughout. In test [5], the Ratio IC50 is more than 118. The molecule further registered an MIC50 in test [6] of 2.6 mg/L (≈ 5.19 µM).

With `COc1cc(Cc2cnc(N)nc2N)cc(/C=C/C(=O)N2N=Cc3ccccc3C2c2ccccc2CN(C)C)c1OC` (configuration not stated), the IC50 in test [1] was 0.4 µM; in test [3], more than 42 µM. Moreover, the MIC in test [2] was not above 128 mg/L.

As for `COc1cc(Cc2cnc(N)nc2N)cc(/C=C/C(=O)N2N=Cc3ccccc3C2C2CCCCC2)c1OC` (configuration not stated), the IC50 is 0.26 µM in test [1], more than 19 µM in test [3], 0.27 µM in test [7] and 25 µM in test [8]. The MIC in test [4] and in test [2] was not above 12.8 mg/L throughout. Besides, in test [6], the MIC50 came to 2.6 mg/L (≈ 4.94 µM).

Take `COc1cc(Cc2cnc(N)nc2N)cc(/C=C/C(=O)N2N=Cc3ccccc3C2c2ccc(CO)cc2)c1OC` (configuration not stated): the values for the IC50 in test [1] and in test [3] were 0.097 µM and more than 23 µM, respectively. Further, in test [2], the MIC is not above 128 mg/L.

In the case of `COc1cc(Cc2cnc(N)nc2N)cc(/C=C/C(=O)N2N=Cc3ccccc3C2CCCO)c1OC` (configuration not stated), the IC50 in test [1] is 0.12 µM; in test [3] it was more than 25 µM; in test [7], 0.27 µM; in test [8], 25 µM. Moreover, the results for the MIC in test [4] and in test [2] were more than 102 mg/L and not above 64 mg/L, respectively. Moreover, the MIC50 in test [6] amounted to 2.6 mg/L (≈ 5.17 µM).

Take `COc1cc(Cc2cnc(N)nc2N)cc(/C=C/C(=O)N2N=Cc3ccccc3C2c2ccc(CO)cc2)c1C(OC)OC` (configuration not stated): the MIC in test [2] is more than 128 mg/L.

Consider `COc1cc(Cc2cnc(N)nc2N)cc(/C=C/C(=O)N2N=Cc3ccccc3C2c2ccccc2CO)c1OC` (configuration not stated), for which, in test [2], the MIC was more than 128 mg/L.

On to `COc1cc(Cc2cnc(N)nc2N)cc(/C=C/C(=O)N2N=Cc3ccccc3C2c2ccccc2)c1OCCN1CCOCC1` (configuration not stated), for which the IC50 in test [1] is 0.17 µM; in test [3] it was more than 21 µM. The MIC in test [4] is not above 25.6 mg/L; in test [2], not above 32 mg/L.

As for `COc1cc(Cc2cnc(N)nc2N)cc(OC)c1OC` [TRIMETHOPRIM], the MIC in test [2] is more than 2050 mg/L.

For the molecule `COc1cc(Cc2cnc(N)nc2N)cc(/C=C/C(=O)N2N=Cc3ccccc3C2c2ccc(CO)cc2)c1O` (configuration not stated), the IC50 in test [1] was 0.069 µM; in test [3], more than 24 µM. In test [2], this molecule gave an MIC not above 128 mg/L.

The molecule `COc1cc(Cc2cnc(N)nc2N)cc(/C=C/C(=O)N2N=Cc3ccccc3C2c2ccc(O)cc2)c1O` (configuration not stated) had an MIC in test [2] of more than 128 mg/L.

Take `COc1cc(Cc2cnc(N)nc2N)cc(/C=C/C(=O)N2N=Cc3ccccc3C2c2ccc(C)cc2)c1OC` (configuration not stated): the IC50 in test [1] is 0.15 µM; in test [3] it was more than 19 µM; in test [7], 0.27 µM; in test [8], 25 µM. In addition, the MIC was not above 51.2 mg/L in test [4] and not above 64 mg/L in test [2]. The Ratio IC50 in test [5] is more than 127. Further, the MIC50 in test [6] is 2.6 mg/L (≈ 4.86 µM).

Regarding `COC(=O)C(C)(C)C1c2ccccc2C=NN1C(=O)/C=C/c1cc(Cc2cnc(N)nc2N)cc(OC)c1OC` (configuration not stated), the IC50 in test [1] was 0.3 µM; in test [3], 813 µM; in test [7], 0.27 µM; in test [8] it was 25 µM. The molecule also yielded an MIC in test [2] not above 128 mg/L. This molecule also yielded an MIC50 in test [6] of 2.6 mg/L (≈ 4.77 µM).

For the molecule `COc1cc(Cc2cnc(N)nc2N)cc(/C=C/C(=O)N2Cc3ccccc3C=N2)c1OC`, the MIC in test [2] is more than 128 mg/L. Besides, the IC50 in test [7] amounted to 37 µM.

`COc1cc(Cc2cnc(N)nc2N)cc(CCC(=O)N2N=Cc3ccccc3C2C)c1OC` (configuration not stated): the results for the IC50 in test [1], in test [3] and in test [7] were 0.092 µM, more than 28 µM and 37 µM, respectively. The MIC in test [4] and in test [2] was not above 64 mg/L throughout.

`COc1cc(Cc2cnc(N)nc2N)cc(/C=C/C(=O)N2N=Cc3ccccc3C2c2ccc(O)cc2)c1C(OC)OC` (configuration not stated) came in with an MIC in test [2] of more than 128 mg/L.

As for `COc1cc(Cc2cnc(N)nc2N)cc(/C=C/C(=O)N2N=Cc3ccccc3C2c2ccccc2)c1OC` (configuration not stated), the IC50 in test [1] is 0.046 µM; in test [3], more than 16 µM; in test [7], 0.27 µM; in test [8], 25 µM. Further, the MIC was more than 51.2 mg/L in test [4] and not above 25.6 mg/L in test [2]. Besides, in test [5], the Ratio IC50 was more than 348. This molecule also displayed an MIC50 in test [6] of 2.6 mg/L (≈ 4.99 µM).

One may read the IC50 as the midpoint of a concentration-inhibition curve. Usually MIC stands for the smallest concentration in the dilution series that meets the test's criterion for growth inhibition. Low values mean a more susceptible organism, high ones a less susceptible organism. The term MIC50 denotes an inhibitory concentration at the 50% level, which refers to growth in some studies and to a panel of isolates in others. The low end stands for greater potency, the high end for weaker potency.
